# Experiments:
# [1] = biological target: Tyrosine-protein kinase ABL1 (Homo sapiens) (UniProt P00519); settings: Compound concentration 1000.0 nM
# [2] = biological target: Atypical kinase COQ8B, mitochondrial (Homo sapiens) (UniProt Q96D53); settings: Compound concentration 1000.0 nM
# [3] = biological target: ALK tyrosine kinase receptor (Homo sapiens) (UniProt Q9UM73); settings: Compound concentration 1000.0 nM
# [4] = biological target: 5'-AMP-activated protein kinase catalytic subunit alpha-2 (Homo sapiens) (UniProt P54646); settings: Compound concentration 1000.0 nM
# [5] = biological target: NUAK family SNF1-like kinase 1 (Homo sapiens) (UniProt O60285); settings: Compound concentration 1000.0 nM
# Chain of NUAK family SNF1-like kinase 1 (Homo sapiens) (O60285 whole entry): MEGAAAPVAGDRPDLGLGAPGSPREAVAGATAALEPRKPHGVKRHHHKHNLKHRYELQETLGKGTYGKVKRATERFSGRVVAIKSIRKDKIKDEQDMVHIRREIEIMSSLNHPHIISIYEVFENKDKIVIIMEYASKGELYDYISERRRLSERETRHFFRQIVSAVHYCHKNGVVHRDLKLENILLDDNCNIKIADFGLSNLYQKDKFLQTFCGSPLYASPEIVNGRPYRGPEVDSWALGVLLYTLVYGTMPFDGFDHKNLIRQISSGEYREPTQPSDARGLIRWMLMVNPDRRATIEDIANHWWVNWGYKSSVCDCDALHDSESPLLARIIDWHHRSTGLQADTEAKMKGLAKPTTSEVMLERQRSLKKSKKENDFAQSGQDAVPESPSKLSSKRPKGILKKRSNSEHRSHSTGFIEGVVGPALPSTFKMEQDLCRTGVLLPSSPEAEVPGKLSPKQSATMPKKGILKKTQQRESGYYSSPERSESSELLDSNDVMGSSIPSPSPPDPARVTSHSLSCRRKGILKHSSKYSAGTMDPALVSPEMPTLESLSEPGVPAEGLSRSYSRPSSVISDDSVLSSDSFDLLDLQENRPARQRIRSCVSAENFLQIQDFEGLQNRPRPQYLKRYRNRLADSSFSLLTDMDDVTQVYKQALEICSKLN
# [6] = biological target: Mitogen-activated protein kinase kinase kinase 5 (Homo sapiens) (UniProt Q99683); settings: Compound concentration 1000.0 nM
# [7] = biological target: Serine/threonine-protein kinase BRSK2 (Homo sapiens) (UniProt Q8IWQ3); settings: Compound concentration 1000.0 nM
# [8] = biological target: Calcium/calmodulin-dependent protein kinase type 1 (Homo sapiens) (UniProt Q14012); settings: Compound concentration 1000.0 nM
# [9] = biological target: Cyclin-dependent kinase 8 (Homo sapiens) (UniProt P49336); settings: Compound concentration 1000.0 nM
# [10] = biological target: Death-associated protein kinase 3 (Homo sapiens) (UniProt O43293); settings: Compound concentration 1000.0 nM
# Chain of Death-associated protein kinase 3 (Homo sapiens) (O43293 whole entry, looked up): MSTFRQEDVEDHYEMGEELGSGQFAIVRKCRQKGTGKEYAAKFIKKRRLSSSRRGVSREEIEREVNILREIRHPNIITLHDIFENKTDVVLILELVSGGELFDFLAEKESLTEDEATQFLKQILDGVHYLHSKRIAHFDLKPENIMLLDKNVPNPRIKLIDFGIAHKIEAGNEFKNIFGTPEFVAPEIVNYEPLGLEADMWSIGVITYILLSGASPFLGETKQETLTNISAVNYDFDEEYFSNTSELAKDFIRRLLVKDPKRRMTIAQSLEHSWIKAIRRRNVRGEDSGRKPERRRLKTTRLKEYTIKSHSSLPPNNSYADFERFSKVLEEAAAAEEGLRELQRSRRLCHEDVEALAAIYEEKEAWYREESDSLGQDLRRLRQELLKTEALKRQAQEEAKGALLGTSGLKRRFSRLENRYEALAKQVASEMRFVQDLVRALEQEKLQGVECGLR
# [11] = biological target: Serine/threonine-protein kinase DCLK2 (Homo sapiens) (UniProt Q8N568); settings: Compound concentration 1000.0 nM
# [12] = biological target: Myotonin-protein kinase (Homo sapiens) (UniProt Q09013); settings: Compound concentration 1000.0 nM
# Chain of Myotonin-protein kinase (Homo sapiens) (Q09013 whole entry): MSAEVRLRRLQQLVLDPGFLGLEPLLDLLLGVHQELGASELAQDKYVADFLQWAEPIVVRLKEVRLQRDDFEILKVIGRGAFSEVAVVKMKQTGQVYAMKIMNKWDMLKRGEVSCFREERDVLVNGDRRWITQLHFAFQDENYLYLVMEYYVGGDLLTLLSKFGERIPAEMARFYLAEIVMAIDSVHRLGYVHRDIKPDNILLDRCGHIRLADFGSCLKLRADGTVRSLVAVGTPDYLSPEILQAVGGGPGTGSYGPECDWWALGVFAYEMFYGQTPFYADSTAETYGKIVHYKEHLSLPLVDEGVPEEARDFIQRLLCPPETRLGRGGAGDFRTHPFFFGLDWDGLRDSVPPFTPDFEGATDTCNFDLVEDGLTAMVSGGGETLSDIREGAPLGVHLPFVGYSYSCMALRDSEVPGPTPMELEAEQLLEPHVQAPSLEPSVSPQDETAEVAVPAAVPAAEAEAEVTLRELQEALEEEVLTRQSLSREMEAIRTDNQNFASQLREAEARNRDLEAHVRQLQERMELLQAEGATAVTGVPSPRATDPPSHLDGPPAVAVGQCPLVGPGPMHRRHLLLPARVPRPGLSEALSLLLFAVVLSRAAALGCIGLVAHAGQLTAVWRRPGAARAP
# [13] = biological target: Ephrin type-A receptor 4 (Homo sapiens) (UniProt P54764); settings: Compound concentration 1000.0 nM
# Chain of Ephrin type-A receptor 4 (Homo sapiens) (P54764 whole entry): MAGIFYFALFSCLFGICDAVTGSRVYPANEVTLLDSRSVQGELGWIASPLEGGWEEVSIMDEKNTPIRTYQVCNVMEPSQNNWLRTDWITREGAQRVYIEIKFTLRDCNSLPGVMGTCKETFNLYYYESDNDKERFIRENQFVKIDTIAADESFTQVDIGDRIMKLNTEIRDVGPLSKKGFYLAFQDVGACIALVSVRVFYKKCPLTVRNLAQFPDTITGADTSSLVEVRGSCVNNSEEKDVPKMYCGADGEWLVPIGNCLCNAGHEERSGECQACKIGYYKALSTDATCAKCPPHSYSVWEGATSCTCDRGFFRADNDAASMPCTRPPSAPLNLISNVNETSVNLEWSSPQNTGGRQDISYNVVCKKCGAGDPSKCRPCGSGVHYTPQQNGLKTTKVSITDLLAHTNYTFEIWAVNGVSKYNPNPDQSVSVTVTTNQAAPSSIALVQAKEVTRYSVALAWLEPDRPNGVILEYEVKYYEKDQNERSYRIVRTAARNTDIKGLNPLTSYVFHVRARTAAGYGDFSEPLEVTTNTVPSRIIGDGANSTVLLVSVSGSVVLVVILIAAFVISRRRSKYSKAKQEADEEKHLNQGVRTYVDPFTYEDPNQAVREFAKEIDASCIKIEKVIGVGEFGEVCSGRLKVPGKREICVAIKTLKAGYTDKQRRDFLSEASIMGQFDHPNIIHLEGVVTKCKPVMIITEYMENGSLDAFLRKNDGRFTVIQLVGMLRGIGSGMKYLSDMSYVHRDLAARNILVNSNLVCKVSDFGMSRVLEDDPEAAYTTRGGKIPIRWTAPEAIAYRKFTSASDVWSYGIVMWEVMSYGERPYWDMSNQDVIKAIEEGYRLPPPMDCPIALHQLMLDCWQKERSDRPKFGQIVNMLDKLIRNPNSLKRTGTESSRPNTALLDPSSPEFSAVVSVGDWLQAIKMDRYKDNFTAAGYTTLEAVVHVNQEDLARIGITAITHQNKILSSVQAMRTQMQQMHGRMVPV
# [14] = biological target: Ephrin type-B receptor 6 (Homo sapiens) (UniProt O15197); settings: Compound concentration 1000.0 nM
# [15] = biological target: Receptor tyrosine-protein kinase erbB-3 (Homo sapiens) (UniProt P21860); settings: Compound concentration 1000.0 nM
# [16] = biological target: Mitogen-activated protein kinase 3 (Homo sapiens) (UniProt P27361); settings: Compound concentration 1000.0 nM
# [17] = biological target: Tyrosine-protein kinase Fer (Homo sapiens) (UniProt P16591); settings: Compound concentration 1000.0 nM
# [18] = test system: Receptor-type tyrosine-protein kinase FLT3 (Homo sapiens), P36888 [D835Y]; settings: Compound concentration 1000.0 nM
# [19] = test system: Receptor-type tyrosine-protein kinase FLT3 (Homo sapiens), P36888 [UNDEFINED MUTATION]; settings: Compound concentration 1000.0 nM
# [20] = biological target: Homeodomain-interacting protein kinase 1 (Homo sapiens) (UniProt Q86Z02); settings: Compound concentration 1000.0 nM
# [21] = biological target: Inhibitor of nuclear factor kappa-B kinase subunit beta (Homo sapiens) (UniProt O14920); settings: Compound concentration 1000.0 nM
# [22] = biological target: Interleukin-1 receptor-associated kinase 1 (Homo sapiens) (UniProt P51617); settings: Compound concentration 1000.0 nM
# [23] = biological target: Serine/threonine-protein kinase LATS2 (Homo sapiens) (UniProt Q9NRM7); settings: Compound concentration 1000.0 nM
# [24] = test system: Leucine-rich repeat serine/threonine-protein kinase 2 (Homo sapiens), Q5S007 [G2019S]; settings: Compound concentration 1000.0 nM
# [25] = biological target: MAP kinase-activated protein kinase 2 (Homo sapiens) (UniProt P49137); settings: Compound concentration 1000.0 nM
# [26] = biological target: MAP/microtubule affinity-regulating kinase 4 (Homo sapiens) (UniProt Q96L34); settings: Compound concentration 1000.0 nM
# [27] = test system: Hepatocyte growth factor receptor (Homo sapiens), P08581 [Y1235D]; settings: Compound concentration 1000.0 nM
# [28] = biological target: MAP kinase-interacting serine/threonine-protein kinase 1 (Homo sapiens) (UniProt Q9BUB5); settings: Compound concentration 1000.0 nM
# [29] = biological target: Serine/threonine-protein kinase 3 (Homo sapiens) (UniProt Q13188); settings: Compound concentration 1000.0 nM
# Chain of Serine/threonine-protein kinase 3 (Homo sapiens) (Q13188 whole entry): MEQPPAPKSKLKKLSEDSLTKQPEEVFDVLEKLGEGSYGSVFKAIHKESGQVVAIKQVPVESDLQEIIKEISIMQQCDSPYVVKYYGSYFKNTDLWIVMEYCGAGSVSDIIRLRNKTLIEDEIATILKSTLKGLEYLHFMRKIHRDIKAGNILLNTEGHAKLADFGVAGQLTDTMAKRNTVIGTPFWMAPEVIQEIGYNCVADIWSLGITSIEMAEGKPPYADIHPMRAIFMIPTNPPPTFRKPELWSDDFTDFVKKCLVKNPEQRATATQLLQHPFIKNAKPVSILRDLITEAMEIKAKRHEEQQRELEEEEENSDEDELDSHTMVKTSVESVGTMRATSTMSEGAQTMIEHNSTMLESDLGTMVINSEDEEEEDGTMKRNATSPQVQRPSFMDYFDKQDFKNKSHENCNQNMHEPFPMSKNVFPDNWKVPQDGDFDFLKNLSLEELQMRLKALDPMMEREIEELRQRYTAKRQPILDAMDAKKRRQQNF
# [30] = biological target: Myosin light chain kinase family member 4 (Homo sapiens) (UniProt Q86YV6); settings: Compound concentration 1000.0 nM
# [31] = biological target: Serine/threonine-protein kinase OSR1 (Homo sapiens) (UniProt O95747); settings: Compound concentration 1000.0 nM
# [32] = biological target: Cyclin-dependent kinase 15 (Homo sapiens) (UniProt Q96Q40); settings: Compound concentration 1000.0 nM
# [33] = biological target: Serine/threonine-protein kinase pim-2 (Homo sapiens) (UniProt Q9P1W9); settings: Compound concentration 1000.0 nM
# [34] = biological target: Serine/threonine-protein kinase N1 (Homo sapiens) (UniProt Q16512); settings: Compound concentration 1000.0 nM
# [35] = biological target: Protein kinase C iota type (Homo sapiens) (UniProt P41743); settings: Compound concentration 1000.0 nM
# [36] = test system: Proto-oncogene tyrosine-protein kinase receptor Ret (Homo sapiens), P07949 [M918T]; settings: Compound concentration 1000.0 nM
# [37] = biological target: Receptor-interacting serine/threonine-protein kinase 1 (Homo sapiens) (UniProt Q13546); settings: Compound concentration 1000.0 nM
# [38] = biological target: Receptor-interacting serine/threonine-protein kinase 2 (Homo sapiens) (UniProt O43353); settings: Compound concentration 1000.0 nM
# [39] = biological target: Ribosomal protein S6 kinase alpha-5 (Homo sapiens) (UniProt O75582); settings: Compound concentration 1000.0 nM
# [40] = biological target: TGF-beta receptor type-1 (Homo sapiens) (UniProt P36897); settings: Compound concentration 1000.0 nM
# [41] = biological target: Angiopoietin-1 receptor (Homo sapiens) (UniProt Q02763); settings: Compound concentration 1000.0 nM
# [42] = biological target: Activated CDC42 kinase 1 (Homo sapiens) (UniProt Q07912); settings: Compound concentration 1000.0 nM
# [43] = biological target: Mitogen-activated protein kinase kinase kinase 20 (Homo sapiens) (UniProt Q9NYL2); settings: Compound concentration 1000.0 nM
# [44] = biological target: Sigma intracellular receptor 2 (Homo sapiens) (UniProt Q5BJF2); settings: Compound concentration 10.0 uM
# [45] = biological target: Sigma non-opioid intracellular receptor 1 (Homo sapiens) (UniProt Q99720); settings: Compound concentration 10.0 uM
# Chain of Sigma non-opioid intracellular receptor 1 (Homo sapiens) (Q99720 whole entry): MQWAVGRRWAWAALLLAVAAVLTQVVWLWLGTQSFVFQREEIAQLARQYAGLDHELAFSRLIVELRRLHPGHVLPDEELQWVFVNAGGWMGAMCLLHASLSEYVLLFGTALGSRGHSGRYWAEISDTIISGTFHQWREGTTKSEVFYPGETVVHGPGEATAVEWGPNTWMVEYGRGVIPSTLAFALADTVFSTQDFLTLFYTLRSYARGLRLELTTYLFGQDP
# Chain of ALK tyrosine kinase receptor (Homo sapiens) (Q9UM73 19-1620 limits assumed): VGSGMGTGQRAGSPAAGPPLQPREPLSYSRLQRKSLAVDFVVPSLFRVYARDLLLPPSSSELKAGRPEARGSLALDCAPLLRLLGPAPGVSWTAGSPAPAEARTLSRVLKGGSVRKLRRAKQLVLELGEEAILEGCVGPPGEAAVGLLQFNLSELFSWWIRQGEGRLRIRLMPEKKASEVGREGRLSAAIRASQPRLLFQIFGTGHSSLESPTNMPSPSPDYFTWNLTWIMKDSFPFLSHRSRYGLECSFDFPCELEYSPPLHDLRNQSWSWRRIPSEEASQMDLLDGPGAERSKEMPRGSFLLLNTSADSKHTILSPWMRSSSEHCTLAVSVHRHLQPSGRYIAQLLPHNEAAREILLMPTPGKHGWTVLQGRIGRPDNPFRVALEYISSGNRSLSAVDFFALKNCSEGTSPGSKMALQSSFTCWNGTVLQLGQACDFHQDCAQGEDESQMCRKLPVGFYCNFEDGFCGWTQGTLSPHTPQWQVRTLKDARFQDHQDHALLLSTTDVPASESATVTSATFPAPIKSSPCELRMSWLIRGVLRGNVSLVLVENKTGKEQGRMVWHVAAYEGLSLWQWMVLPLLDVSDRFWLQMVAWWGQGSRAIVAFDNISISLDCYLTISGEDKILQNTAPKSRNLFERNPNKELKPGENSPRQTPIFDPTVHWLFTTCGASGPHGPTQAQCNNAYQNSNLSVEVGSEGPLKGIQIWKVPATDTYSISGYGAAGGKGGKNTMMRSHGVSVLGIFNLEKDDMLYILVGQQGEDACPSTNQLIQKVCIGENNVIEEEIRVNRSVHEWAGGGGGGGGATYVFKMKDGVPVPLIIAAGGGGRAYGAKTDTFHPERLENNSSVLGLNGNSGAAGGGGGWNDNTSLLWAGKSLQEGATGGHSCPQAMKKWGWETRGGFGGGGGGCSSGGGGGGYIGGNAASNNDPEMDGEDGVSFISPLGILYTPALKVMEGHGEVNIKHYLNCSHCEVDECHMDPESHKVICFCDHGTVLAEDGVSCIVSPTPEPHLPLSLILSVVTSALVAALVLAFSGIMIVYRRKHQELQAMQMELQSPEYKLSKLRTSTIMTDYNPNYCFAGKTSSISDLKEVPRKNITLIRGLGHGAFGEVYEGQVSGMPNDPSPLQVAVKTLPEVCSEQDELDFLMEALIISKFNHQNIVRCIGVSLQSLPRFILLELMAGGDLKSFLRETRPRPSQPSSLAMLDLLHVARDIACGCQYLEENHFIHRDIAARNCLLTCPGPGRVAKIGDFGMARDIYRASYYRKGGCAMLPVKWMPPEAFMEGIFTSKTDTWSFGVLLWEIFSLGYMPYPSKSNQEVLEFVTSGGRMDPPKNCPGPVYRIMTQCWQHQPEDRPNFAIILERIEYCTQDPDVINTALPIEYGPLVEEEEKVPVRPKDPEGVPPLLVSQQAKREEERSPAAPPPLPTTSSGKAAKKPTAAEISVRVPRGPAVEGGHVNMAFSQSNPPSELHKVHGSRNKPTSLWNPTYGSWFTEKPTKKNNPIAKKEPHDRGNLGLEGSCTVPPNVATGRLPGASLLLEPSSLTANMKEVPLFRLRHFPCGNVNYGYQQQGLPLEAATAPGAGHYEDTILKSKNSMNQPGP
smiles,measurement,setting,value
CS(=O)(=O)NCC[C@H](NC(=O)c1cncc2c1cnn2-c1ccc(F)cc1)c1ccnc(S(C)(=O)=O)c1 [BI 9307],residual activity,[1],100%
same,residual activity,[2],100%
same,residual activity,[3],100%
same,residual activity,[4],97%
same,residual activity,[5],85%
same,residual activity,[6],96%
same,residual activity,[7],77%
same,residual activity,[8],94%
same,residual activity,[9],100%
same,residual activity,[10],100%
same,residual activity,[11],100%
same,residual activity,[12],100%
same,residual activity,[13],100%
same,residual activity,[14],100%
same,residual activity,[15],100%
same,residual activity,[16],97%
same,residual activity,[17],100%
same,residual activity,[18],97%
same,residual activity,[19],100%
same,residual activity,[20],100%
same,residual activity,[21],89%
same,residual activity,[22],100%
same,residual activity,[23],97%
same,residual activity,[24],92%
same,residual activity,[25],100%
same,residual activity,[26],78%
same,residual activity,[27],93%
same,residual activity,[28],95%
same,residual activity,[29],100%
same,residual activity,[30],100%
same,residual activity,[31],88%
same,residual activity,[32],79%
same,residual activity,[33],86%
same,residual activity,[34],100%
same,residual activity,[35],100%
same,residual activity,[36],100%
same,residual activity,[37],99%
same,residual activity,[38],100%
same,residual activity,[39],100%
same,residual activity,[40],100%
same,residual activity,[41],84%
same,residual activity,[42],100%
same,residual activity,[43],88%
same,inhibition,[44],-1.85%
same,inhibition,[45],7.62%
CS(=O)(=O)c1cc(C2(NC(=O)c3cncc4c3cnn4-c3ccc(F)cc3)CC2)ccn1 [BI 639667],residual activity,[1],71%
same,residual activity,[2],100%
same,residual activity,[3],100%
same,residual activity,[4],100%
same,residual activity,[5],91%
same,residual activity,[6],97%
same,residual activity,[7],84%
same,residual activity,[8],65%
same,residual activity,[9],100%
same,residual activity,[10],98%
same,residual activity,[11],100%
same,residual activity,[12],99%
same,residual activity,[13],100%
same,residual activity,[14],100%
same,residual activity,[15],100%
same,residual activity,[16],100%
same,residual activity,[17],100%
same,residual activity,[18],98%
same,residual activity,[19],70%
same,residual activity,[21],100%
same,residual activity,[22],87%
same,residual activity,[23],100%
same,residual activity,[24],100%
same,residual activity,[25],100%
same,residual activity,[26],100%
same,residual activity,[27],91%
same,residual activity,[28],47%
same,residual activity,[29],100%
same,residual activity,[30],85%
same,residual activity,[31],85%
same,residual activity,[32],100%
same,residual activity,[33],100%
same,residual activity,[34],100%
same,residual activity,[35],100%
same,residual activity,[36],100%
same,residual activity,[37],100%
same,residual activity,[38],53%
same,residual activity,[39],61%
same,residual activity,[40],100%
same,residual activity,[41],100%
same,residual activity,[42],100%
same,residual activity,[43],86%
same,inhibition,[44],9.02%
same,inhibition,[45],26.4%

# Source: ChEMBL document CHEMBL4507278 (2021)
